Results reported in ChEMBL document CHEMBL4507292 (2021).

Tests used:
[1] = target: Serine/threonine-protein kinase WNK3 (Homo sapiens) (UniProt Q9BYP7); conditions: Compound concentration 1000.0 nM
[2] = target: Serine/threonine-protein kinase TAO3 (Homo sapiens) (UniProt Q9H2K8); conditions: Compound concentration 1000.0 nM
[3] = target: Serine/threonine-protein kinase BRSK2 (Homo sapiens) (UniProt Q8IWQ3); conditions: Compound concentration 1000.0 nM
[4] = target: Proto-oncogene tyrosine-protein kinase ROS (Homo sapiens) (UniProt P08922); conditions: Compound concentration 1000.0 nM
[5] = target: Serine/threonine-protein kinase tousled-like 2 (Homo sapiens) (UniProt Q86UE8); conditions: Compound concentration 1000.0 nM
[6] = target: Serine/threonine-protein kinase PLK4 (Homo sapiens) (UniProt O00444); conditions: Compound concentration 1000.0 nM
[7] = target: D(1A) dopamine receptor (Homo sapiens, UniProt P21728); assay: GPCRScan assay: inhibition of D1; set-up: radioligand conc. used [nm] 0.6 – 1.3, parental cells HEKT
[8] = target: Dual specificity protein kinase CLK1 (Homo sapiens) (UniProt P49759); conditions: Compound concentration 1000.0 nM
[9] = target: Cyclin-dependent kinase-like 5 (Homo sapiens) (UniProt O76039); conditions: Compound concentration 1000.0 nM
[10] = test system: Mast/stem cell growth factor receptor Kit (Homo sapiens), P10721 [D816H]; conditions: Compound concentration 1000.0 nM
[11] = test system: Mast/stem cell growth factor receptor Kit (Homo sapiens), P10721 [L576P]; conditions: Compound concentration 1000.0 nM
[12] = target: Mitogen-activated protein kinase kinase kinase 5 (Homo sapiens) (UniProt Q99683); conditions: Compound concentration 1000.0 nM
[13] = target: Serine/threonine-protein kinase PAK 5 (Homo sapiens) (UniProt Q9P286); conditions: Compound concentration 1000.0 nM
[14] = target: Dual specificity mitogen-activated protein kinase kinase 7 (Homo sapiens) (UniProt O14733); conditions: Compound concentration 1000.0 nM
[15] = target: Sigma non-opioid intracellular receptor 1 (Homo sapiens, UniProt Q99720); assay: GPCRScan assay: inhibition of Sigma 1; set-up: radioligand conc. used [nm] 4.0 – 5.0, parental cells HEKT
[16] = target: High affinity nerve growth factor receptor (Homo sapiens) (UniProt P04629); conditions: Compound concentration 1000.0 nM
[17] = target: Dual specificity protein kinase CLK4 (Homo sapiens) (UniProt Q9HAZ1); conditions: Compound concentration 1000.0 nM
[18] = target: Rho-associated protein kinase 2 (Homo sapiens) (UniProt O75116); conditions: Compound concentration 1000.0 nM
[19] = target: Serine/threonine-protein kinase VRK2 (Homo sapiens) (UniProt Q86Y07); conditions: Compound concentration 1000.0 nM
[20] = target: Alpha-2B adrenergic receptor (Homo sapiens, UniProt P18089); assay: GPCRScan assay: inhibition of Alpha2B; set-up: radioligand conc. used [nm] 1.5 – 2.0, parental cells HEKT
[21] = target: Tyrosine-protein kinase CSK (Homo sapiens) (UniProt P41240); conditions: Compound concentration 1000.0 nM
[22] = target: 5-hydroxytryptamine receptor 1B (Homo sapiens) (UniProt P28222); conditions: Compound concentration 10.0 uM
[23] = target: Receptor-interacting serine/threonine-protein kinase 1 (Homo sapiens) (UniProt Q13546); conditions: Compound concentration 1000.0 nM
[24] = target: Serine/threonine-protein kinase pim-2 (Homo sapiens) (UniProt Q9P1W9); conditions: Compound concentration 1000.0 nM
[25] = target: Atypical kinase COQ8A, mitochondrial (Homo sapiens) (UniProt Q8NI60); conditions: Compound concentration 1000.0 nM
[26] = target: Phosphatidylinositol 4-phosphate 3-kinase C2 domain-containing subunit beta (Homo sapiens) (UniProt O00750); conditions: Compound concentration 1000.0 nM
[27] = target: Mitogen-activated protein kinase kinase kinase 10 (Homo sapiens) (UniProt Q02779); conditions: Compound concentration 1000.0 nM
[28] = target: Sigma intracellular receptor 2 (Homo sapiens, UniProt Q5BJF2); conditions: Compound concentration 10.0 uM
[29] = target: Serine/threonine-protein kinase WNK4 (Homo sapiens) (UniProt Q96J92); conditions: Compound concentration 1000.0 nM
[30] = target: Mitogen-activated protein kinase 6 (Homo sapiens) (UniProt Q16659); conditions: Compound concentration 1000.0 nM
[31] = target: Receptor-interacting serine/threonine-protein kinase 2 (Homo sapiens) (UniProt O43353); conditions: Compound concentration 1000.0 nM
[32] = target: Rhodopsin kinase GRK1 (Homo sapiens) (UniProt Q15835); conditions: Compound concentration 1000.0 nM
[33] = test system: Tyrosine-protein kinase ABL1 (Homo sapiens), P00519 [E255K]; conditions: Compound concentration 1000.0 nM
[34] = target: Ribosomal protein S6 kinase alpha-5 (Homo sapiens) (UniProt O75582); conditions: Compound concentration 1000.0 nM
[35] = target: Serine/threonine-protein kinase Nek4 (Homo sapiens) (UniProt P51957); conditions: Compound concentration 1000.0 nM
[36] = target: Cyclin-dependent kinase 15 (Homo sapiens) (UniProt Q96Q40); conditions: Compound concentration 1000.0 nM
[37] = test system: Tyrosine-protein kinase ABL1 (Homo sapiens), P00519 [Y253F]; conditions: Compound concentration 1000.0 nM
[38] = target: Serine/threonine-protein kinase TBK1 (Homo sapiens) (UniProt Q9UHD2); conditions: Compound concentration 1000.0 nM
[39] = target: Serine/threonine-protein kinase 17B (Homo sapiens) (UniProt O94768); conditions: Compound concentration 1000.0 nM
[40] = target: Myosin-IIIa (Homo sapiens) (UniProt Q8NEV4); conditions: Compound concentration 1000.0 nM
[41] = target: Cyclin-dependent kinase 4 (Homo sapiens) (UniProt P11802); conditions: Compound concentration 1000.0 nM
[42] = target: Phosphatidylinositol 4-phosphate 5-kinase type-1 gamma (Homo sapiens) (UniProt O60331); conditions: Compound concentration 1000.0 nM
[43] = target: Insulin receptor-related protein (Homo sapiens) (UniProt P14616); conditions: Compound concentration 1000.0 nM
[44] = test system: Phosphatidylinositol 4,5-bisphosphate 3-kinase catalytic subunit alpha isoform (Homo sapiens), P42336 [E545K]; conditions: Compound concentration 1000.0 nM
[45] = test system: Phosphatidylinositol 4,5-bisphosphate 3-kinase catalytic subunit alpha isoform (Homo sapiens), P42336 [I800L]; conditions: Compound concentration 1000.0 nM

Chain of Serine/threonine-protein kinase TAO3 (Homo sapiens) (Q9H2K8 whole entry): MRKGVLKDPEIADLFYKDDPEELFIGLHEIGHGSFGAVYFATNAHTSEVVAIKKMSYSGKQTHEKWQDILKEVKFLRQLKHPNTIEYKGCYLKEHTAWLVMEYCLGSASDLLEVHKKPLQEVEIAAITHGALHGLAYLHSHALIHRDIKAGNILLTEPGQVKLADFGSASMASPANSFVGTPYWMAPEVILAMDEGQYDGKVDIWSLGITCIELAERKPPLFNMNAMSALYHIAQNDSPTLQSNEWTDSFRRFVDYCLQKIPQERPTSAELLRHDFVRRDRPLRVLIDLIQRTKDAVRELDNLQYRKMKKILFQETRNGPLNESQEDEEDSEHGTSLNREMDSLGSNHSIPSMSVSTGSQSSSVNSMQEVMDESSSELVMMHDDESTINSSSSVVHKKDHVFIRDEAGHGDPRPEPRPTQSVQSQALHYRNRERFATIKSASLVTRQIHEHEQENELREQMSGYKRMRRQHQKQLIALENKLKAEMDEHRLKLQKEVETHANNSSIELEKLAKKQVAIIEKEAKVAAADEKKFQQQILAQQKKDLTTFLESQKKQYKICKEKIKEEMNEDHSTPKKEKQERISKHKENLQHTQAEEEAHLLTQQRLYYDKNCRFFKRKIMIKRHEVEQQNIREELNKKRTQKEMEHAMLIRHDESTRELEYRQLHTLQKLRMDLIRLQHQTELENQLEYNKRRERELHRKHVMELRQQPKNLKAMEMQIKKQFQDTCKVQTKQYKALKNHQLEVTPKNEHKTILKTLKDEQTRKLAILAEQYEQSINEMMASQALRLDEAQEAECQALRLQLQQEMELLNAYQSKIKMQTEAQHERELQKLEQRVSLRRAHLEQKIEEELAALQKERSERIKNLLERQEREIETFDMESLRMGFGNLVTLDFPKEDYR
Chain of Phosphatidylinositol 4,5-bisphosphate 3-kinase catalytic subunit alpha isoform (Homo sapiens), P42336 [E545K] (P42336 whole entry E545K, canonical isoform): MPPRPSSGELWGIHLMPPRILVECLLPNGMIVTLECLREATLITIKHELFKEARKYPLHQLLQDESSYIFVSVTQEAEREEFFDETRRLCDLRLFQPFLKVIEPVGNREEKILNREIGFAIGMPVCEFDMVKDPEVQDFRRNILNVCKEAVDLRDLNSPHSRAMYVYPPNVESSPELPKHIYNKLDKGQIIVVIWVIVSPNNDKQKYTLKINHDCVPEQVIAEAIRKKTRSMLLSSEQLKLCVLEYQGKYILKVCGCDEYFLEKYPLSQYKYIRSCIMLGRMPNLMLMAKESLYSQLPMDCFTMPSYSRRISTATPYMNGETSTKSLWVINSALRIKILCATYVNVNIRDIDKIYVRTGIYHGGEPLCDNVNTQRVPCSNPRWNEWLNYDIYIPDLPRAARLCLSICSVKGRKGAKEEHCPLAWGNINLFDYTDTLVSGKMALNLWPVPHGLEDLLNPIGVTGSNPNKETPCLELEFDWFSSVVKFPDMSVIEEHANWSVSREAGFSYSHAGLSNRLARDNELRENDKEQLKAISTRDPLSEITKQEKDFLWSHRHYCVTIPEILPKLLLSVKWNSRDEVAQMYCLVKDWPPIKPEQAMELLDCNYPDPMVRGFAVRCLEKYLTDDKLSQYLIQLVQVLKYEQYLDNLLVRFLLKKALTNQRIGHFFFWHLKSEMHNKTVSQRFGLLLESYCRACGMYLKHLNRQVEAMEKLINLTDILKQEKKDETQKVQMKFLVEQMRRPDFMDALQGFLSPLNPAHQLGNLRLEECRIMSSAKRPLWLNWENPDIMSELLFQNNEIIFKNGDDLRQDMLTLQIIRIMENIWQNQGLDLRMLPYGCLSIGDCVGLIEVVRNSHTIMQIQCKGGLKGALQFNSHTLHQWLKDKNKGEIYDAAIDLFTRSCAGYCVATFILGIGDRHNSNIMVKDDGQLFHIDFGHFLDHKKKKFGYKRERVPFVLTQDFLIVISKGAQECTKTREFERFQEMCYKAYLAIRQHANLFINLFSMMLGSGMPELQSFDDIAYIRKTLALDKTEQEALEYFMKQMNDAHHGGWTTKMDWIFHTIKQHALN
Chain of Serine/threonine-protein kinase WNK4 (Homo sapiens) (Q96J92 whole entry): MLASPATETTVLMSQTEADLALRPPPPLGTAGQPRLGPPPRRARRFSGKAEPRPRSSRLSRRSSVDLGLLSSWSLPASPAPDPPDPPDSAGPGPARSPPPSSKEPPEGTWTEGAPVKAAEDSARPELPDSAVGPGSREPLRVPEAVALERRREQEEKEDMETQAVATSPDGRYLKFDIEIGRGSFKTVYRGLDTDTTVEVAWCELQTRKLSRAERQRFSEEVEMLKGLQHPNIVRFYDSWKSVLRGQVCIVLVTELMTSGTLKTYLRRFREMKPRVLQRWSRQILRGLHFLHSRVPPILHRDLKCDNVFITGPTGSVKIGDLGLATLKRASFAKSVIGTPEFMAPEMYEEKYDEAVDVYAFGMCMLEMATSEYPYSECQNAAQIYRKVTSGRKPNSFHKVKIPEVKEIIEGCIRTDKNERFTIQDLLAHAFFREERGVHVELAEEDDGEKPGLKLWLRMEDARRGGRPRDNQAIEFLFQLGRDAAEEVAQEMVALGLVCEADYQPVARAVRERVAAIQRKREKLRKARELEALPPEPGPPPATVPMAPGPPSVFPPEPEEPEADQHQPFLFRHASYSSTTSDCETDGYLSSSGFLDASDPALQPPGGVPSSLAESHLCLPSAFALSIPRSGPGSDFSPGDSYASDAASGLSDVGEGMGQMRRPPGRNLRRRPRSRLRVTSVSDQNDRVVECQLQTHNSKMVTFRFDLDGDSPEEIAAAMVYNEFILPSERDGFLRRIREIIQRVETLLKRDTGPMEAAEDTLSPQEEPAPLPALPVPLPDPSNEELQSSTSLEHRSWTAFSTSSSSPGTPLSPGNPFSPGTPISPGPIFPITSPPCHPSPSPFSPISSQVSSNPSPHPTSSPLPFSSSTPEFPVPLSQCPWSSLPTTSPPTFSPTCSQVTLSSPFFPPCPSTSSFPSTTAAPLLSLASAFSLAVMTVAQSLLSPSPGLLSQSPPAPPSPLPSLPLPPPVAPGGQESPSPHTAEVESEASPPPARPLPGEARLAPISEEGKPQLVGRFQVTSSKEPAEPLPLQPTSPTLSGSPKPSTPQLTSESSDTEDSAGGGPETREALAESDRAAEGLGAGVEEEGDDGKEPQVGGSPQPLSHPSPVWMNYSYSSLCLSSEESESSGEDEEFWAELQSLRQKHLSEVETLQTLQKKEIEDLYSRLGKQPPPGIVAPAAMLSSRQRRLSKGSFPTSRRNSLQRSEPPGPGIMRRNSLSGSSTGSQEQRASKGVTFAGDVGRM
Chain of Insulin receptor-related protein (Homo sapiens) (P14616 27-742 limits assumed): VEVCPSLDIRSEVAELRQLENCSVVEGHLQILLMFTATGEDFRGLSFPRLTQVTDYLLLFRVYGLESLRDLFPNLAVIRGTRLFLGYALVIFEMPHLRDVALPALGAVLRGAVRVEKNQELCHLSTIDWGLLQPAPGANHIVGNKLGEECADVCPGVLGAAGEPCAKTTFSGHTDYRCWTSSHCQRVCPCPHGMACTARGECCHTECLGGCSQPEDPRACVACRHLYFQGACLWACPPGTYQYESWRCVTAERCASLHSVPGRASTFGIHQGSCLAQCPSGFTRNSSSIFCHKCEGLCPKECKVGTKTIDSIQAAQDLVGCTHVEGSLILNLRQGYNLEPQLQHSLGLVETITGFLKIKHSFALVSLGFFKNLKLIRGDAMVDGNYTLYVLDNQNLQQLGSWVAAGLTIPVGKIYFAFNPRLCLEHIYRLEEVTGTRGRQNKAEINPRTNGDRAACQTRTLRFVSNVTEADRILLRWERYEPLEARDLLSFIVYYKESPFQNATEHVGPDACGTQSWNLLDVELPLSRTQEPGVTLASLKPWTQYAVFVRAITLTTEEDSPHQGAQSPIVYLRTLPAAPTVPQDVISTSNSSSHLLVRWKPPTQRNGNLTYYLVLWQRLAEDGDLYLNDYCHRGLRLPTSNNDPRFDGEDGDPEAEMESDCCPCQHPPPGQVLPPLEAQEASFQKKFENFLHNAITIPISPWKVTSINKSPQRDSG
Chain of Insulin receptor-related protein (Homo sapiens) (P14616 747-1297 limits assumed): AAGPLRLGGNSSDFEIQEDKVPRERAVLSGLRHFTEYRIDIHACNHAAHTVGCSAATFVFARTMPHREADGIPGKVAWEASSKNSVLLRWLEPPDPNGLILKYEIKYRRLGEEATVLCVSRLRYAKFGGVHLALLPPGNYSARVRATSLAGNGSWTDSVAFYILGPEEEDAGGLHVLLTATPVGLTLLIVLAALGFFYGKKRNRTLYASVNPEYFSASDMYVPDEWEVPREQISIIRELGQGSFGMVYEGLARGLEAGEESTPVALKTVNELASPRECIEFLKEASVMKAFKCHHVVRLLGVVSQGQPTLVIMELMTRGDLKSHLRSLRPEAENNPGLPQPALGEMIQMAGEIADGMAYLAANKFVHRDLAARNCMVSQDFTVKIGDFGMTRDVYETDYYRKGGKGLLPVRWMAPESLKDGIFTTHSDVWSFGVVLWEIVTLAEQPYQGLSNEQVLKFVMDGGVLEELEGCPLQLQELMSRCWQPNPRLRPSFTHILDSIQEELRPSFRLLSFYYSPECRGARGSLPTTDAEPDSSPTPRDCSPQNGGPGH
Chain of Sigma intracellular receptor 2 (Q5BJF2 whole entry): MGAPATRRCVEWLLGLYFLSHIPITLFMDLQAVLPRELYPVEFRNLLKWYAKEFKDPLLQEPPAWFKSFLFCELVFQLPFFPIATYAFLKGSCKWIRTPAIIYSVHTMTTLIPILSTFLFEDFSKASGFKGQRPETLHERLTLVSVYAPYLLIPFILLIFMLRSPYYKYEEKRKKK
Chain of Serine/threonine-protein kinase pim-2 (Homo sapiens) (Q9P1W9 whole entry, looked up): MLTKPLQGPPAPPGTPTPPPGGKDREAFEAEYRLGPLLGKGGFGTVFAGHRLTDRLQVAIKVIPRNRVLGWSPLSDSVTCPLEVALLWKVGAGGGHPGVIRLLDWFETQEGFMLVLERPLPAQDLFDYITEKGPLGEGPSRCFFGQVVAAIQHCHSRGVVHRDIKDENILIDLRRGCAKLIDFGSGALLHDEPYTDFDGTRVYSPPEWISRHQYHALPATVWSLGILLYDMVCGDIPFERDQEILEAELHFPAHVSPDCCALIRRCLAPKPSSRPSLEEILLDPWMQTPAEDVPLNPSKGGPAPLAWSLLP

Cc1c(C(=O)O)cc(-c2ccc(C3CCNCC3)cc2)c2ccc(-c3ccc(C(F)(F)F)cc3)cc12 [PPTN-NC]
1.17 µM: Ki [15]
1.84 µM: Ki [20]
2.15 µM: Ki [7]
inactive: residual activity [1] 100% | residual activity [2] 100% | residual activity [3] 100% | residual activity [4] 100% | residual activity [5] 100% | residual activity [6] 96% | residual activity [8] 100% | residual activity [9] 100% | residual activity [10] 100% | residual activity [11] 100% | residual activity [12] 100% | residual activity [13] 98% | residual activity [14] 100% | residual activity [16] 100% | residual activity [17] 100% | residual activity [18] 89% | residual activity [19] 100% | residual activity [21] 100% | inhibition [22] 14.4% | residual activity [23] 100% | residual activity [24] 100% | residual activity [25] 100% | residual activity [26] 100% | residual activity [27] 100% | residual activity [29] 100% | residual activity [30] 100% | residual activity [31] 100% | residual activity [32] 100% | residual activity [33] 96% | residual activity [34] 100% | residual activity [35] 100% | residual activity [36] 100% | residual activity [37] 87% | residual activity [38] 73% | residual activity [39] 100% | residual activity [40] 100% | residual activity [41] 100% | residual activity [42] 98% | residual activity [43] 100% | residual activity [44] 89% | residual activity [45] 100%
active: inhibition [28] 92.7%

O=C(O)c1cc(-c2ccc(C3CCNCC3)cc2)c2ccc(-c3ccc(C(F)(F)F)cc3)cc2c1 [PPTN]
10 µM: Ki [7]
active: inhibition [28] 95.6%
inactive: residual activity [1] 100% | residual activity [2] 100% | residual activity [3] 100% | residual activity [4] 100% | residual activity [5] 100% | residual activity [6] 80% | residual activity [8] 100% | residual activity [9] 100% | residual activity [10] 100% | residual activity [11] 100% | residual activity [12] 100% | residual activity [13] 100% | residual activity [14] 100% | residual activity [16] 100% | residual activity [17] 100% | residual activity [18] 100% | residual activity [19] 100% | residual activity [21] 100% | inhibition [22] 20.4% | residual activity [23] 100% | residual activity [24] 100% | residual activity [25] 100% | residual activity [26] 100% | residual activity [27] 100% | residual activity [29] 100% | residual activity [30] 100% | residual activity [31] 100% | residual activity [32] 100% | residual activity [33] 87% | residual activity [34] 100% | residual activity [35] 100% | residual activity [36] 96% | residual activity [37] 73% | residual activity [38] 80% | residual activity [39] 100% | residual activity [40] 100% | residual activity [41] 100% | residual activity [42] 100% | residual activity [43] 100% | residual activity [44] 100% | residual activity [45] 93%
2.56 µM: Ki [20]
1.18 µM: Ki [15]
